Laboratory results from US11110209B2, “Intraluminal therapy system for gastrointestinal infections” (MACKAY MEDICAL FOUNDATION THE PRESBYTERIAN CHURCH IN TAIWAN …, priority 2017, dated 2021).

Experiment: Clinical study: gastric juice pH after irrigation
Format: in vivo
Conditions: patients; acetylcysteine (12 mg/ml) solution irrigation of gastric mucosa after two tablets of sublingual Takepron
Method: Ten patients having H. pylori infection without prior eradication therapy were enrolled. Before the intraluminal therapy, two tablets of proton pump inhibitor (Takepron) were sublingually administered to the patient. Using the system of the invention, the gastric mucosa was irrigated with acetylcysteine (12 mg/ml) solution to remove the acid and mucous on the gastric mucosa. The pH levels before and after irrigation were measured. The acidity of the gastric juice could be well controlled at around pH 5.0 after irrigation. The total dosage of acetylcysteine was less than 140 mg/kg. Then amoxicillin, metronidazole, clarithromycin, sucrate gel and distilled water were mixed to form a complex. […] The viscosities of the complexes were shown below.

CC(=O)N[C@@H](CS)C(=O)O [acetylcysteine]
pH of gastric juice after irrigation: ~5.0 pH
